# Key:
# ISC-enriched organoids [1] = experiment: Primary screen, 384-well 2.5-D organoid differentiation (ENR+CD, 6 days): basal lysozyme secretion (LYZ.NS); assay type: cell-based, murine; conditions: for Dose.FC.LYZ.NS: FC vs plate median; for Z.LYZ.NS: standard z score of FC; for Dose.FC.LYZ.NS (log 2 fold change, basal lysozyme secretion) / Dose.FC.LYZ.NS (log 2 fold change): vs plate median
# Source text: (§1) High-throughput screening.
# ISC-enriched organoids [2] = experiment: Primary screen, 384-well 2.5-D organoid differentiation (ENR+CD, 6 days): carbachol-induced lysozyme secretion (LYZ.S); assay type: cell-based, murine; conditions: for Dose.FC.LYZ.S / Dose.FC.LYZ.S (log 2 fold change): primary screen; for Dose.FC.LYZ.S: FC vs plate median; for Dose.FC.LYZ.S (log 2 fold change, carbachol-induced lysozyme secretion) / Dose.FC.LYZ.S (log 2 fold change): vs plate median
# Source text: as §1
# ISC-enriched organoids [3] = experiment: Primary screen, 384-well 2.5-D organoid differentiation (ENR+CD, 6 days, Target Selective Inhibitor Library, vs whole-plate median): ATP (CellTiter-Glo 3D, CTG); conditions: for Dose.FC.CTG: FC vs plate median; for Z.CTG: standard z score of FC; for Dose.FC.CTG (log 2 fold change, ATP) / Dose.FC.CTG (log 2 fold change): vs plate median
# [4] = primary screen, dose 0.08 uM, ENR+CD 6 days
# [5] = primary screen, dose 0.40 uM, ENR+CD 6 days
# [6] = primary screen, dose 2.00 uM, ENR+CD 6 days
# [7] = primary screen, dose 10.00 uM, ENR+CD 6 days
compound,measurement,setting,value
CN(c1ncccc1CNc1nc(Nc2ccc3c(c2)CC(=O)N3)ncc1C(F)(F)F)S(C)(=O)=O [PF-562271],Dose.FC.LYZ.NS,"ISC-enriched organoids [1]; Dose 0.08 uM, primary screen",−0.068 log 2 fold change
same,Z.LYZ.NS,ISC-enriched organoids [1]; Dose 0.08 uM,−0.589
same,Dose.FC.LYZ.NS,"ISC-enriched organoids [1]; Dose 0.40 uM, primary screen",−0.152 log 2 fold change
same,Z.LYZ.NS,ISC-enriched organoids [1]; Dose 0.40 uM,−1.325
same,Dose.FC.LYZ.NS,"ISC-enriched organoids [1]; Dose 2.00 uM, primary screen",−0.234 log 2 fold change
same,Z.LYZ.NS,ISC-enriched organoids [1]; Dose 2.00 uM,−2.034
same,Dose.FC.LYZ.NS,"ISC-enriched organoids [1]; Dose 10.00 uM, primary screen",−0.251 log 2 fold change
same,Z.LYZ.NS,ISC-enriched organoids [1]; Dose 10.00 uM,−2.184
same,Dose.FC.LYZ.S,ISC-enriched organoids [2]; Dose 0.08 uM,−0.088 log 2 fold change
same,Dose.FC.LYZ.S,ISC-enriched organoids [2]; Dose 0.40 uM,−0.214 log 2 fold change
same,Dose.FC.LYZ.S,ISC-enriched organoids [2]; Dose 2.00 uM,−0.332 log 2 fold change
same,Dose.FC.LYZ.S,ISC-enriched organoids [2]; Dose 10.00 uM,−0.414 log 2 fold change
same,Dose.FC.CTG,"ISC-enriched organoids [3]; Dose 0.08 uM, primary screen",−0.114 log 2 fold change
same,Z.CTG,ISC-enriched organoids [3]; Dose 0.08 uM,−0.273
same,Dose.FC.CTG,"ISC-enriched organoids [3]; Dose 0.40 uM, primary screen",−0.217 log 2 fold change
same,Z.CTG,ISC-enriched organoids [3]; Dose 0.40 uM,−0.518
same,Dose.FC.CTG,"ISC-enriched organoids [3]; Dose 2.00 uM, primary screen",−0.549 log 2 fold change
same,Z.CTG,ISC-enriched organoids [3]; Dose 2.00 uM,−1.311
same,Dose.FC.CTG,"ISC-enriched organoids [3]; Dose 10.00 uM, primary screen",−0.949 log 2 fold change
same,Z.CTG,ISC-enriched organoids [3]; Dose 10.00 uM,−2.266
O=C(NCc1ccccc1)c1csc(Nc2ccncn2)n1 [Thiazovivin],Z.LYZ.NS (standard z score),ISC-enriched organoids [1]; dose 0.08 uM,0.780
same,"Dose.FC.LYZ.NS (log 2 fold change, basal lysozyme secretion)",ISC-enriched organoids [1]; dose 0.08 uM,0.090
same,Z.LYZ.NS (standard z score),ISC-enriched organoids [1]; dose 0.40 uM,0.611
same,"Dose.FC.LYZ.NS (log 2 fold change, basal lysozyme secretion)",ISC-enriched organoids [1]; dose 0.40 uM,0.070
same,Z.LYZ.NS (standard z score),ISC-enriched organoids [1]; dose 2.00 uM,0.205
same,"Dose.FC.LYZ.NS (log 2 fold change, basal lysozyme secretion)",ISC-enriched organoids [1]; dose 2.00 uM,0.024
same,Z.LYZ.NS (standard z score),ISC-enriched organoids [1]; dose 10.00 uM,−0.605
same,"Dose.FC.LYZ.NS (log 2 fold change, basal lysozyme secretion)",ISC-enriched organoids [1]; dose 10.00 uM,−0.069
same,"Dose.FC.LYZ.S (log 2 fold change, carbachol-induced lysozyme secretion)",ISC-enriched organoids [2]; dose 0.08 uM,0.142
same,"Dose.FC.LYZ.S (log 2 fold change, carbachol-induced lysozyme secretion)",ISC-enriched organoids [2]; dose 0.40 uM,0.060
same,"Dose.FC.LYZ.S (log 2 fold change, carbachol-induced lysozyme secretion)",ISC-enriched organoids [2]; dose 2.00 uM,0.064
same,"Dose.FC.LYZ.S (log 2 fold change, carbachol-induced lysozyme secretion)",ISC-enriched organoids [2]; dose 10.00 uM,0.037
same,Z.CTG (standard z score),ISC-enriched organoids [3]; dose 0.08 uM,0.337
same,"Dose.FC.CTG (log 2 fold change, ATP)",ISC-enriched organoids [3]; dose 0.08 uM,0.141
same,Z.CTG (standard z score),ISC-enriched organoids [3]; dose 0.40 uM,0.271
same,"Dose.FC.CTG (log 2 fold change, ATP)",ISC-enriched organoids [3]; dose 0.40 uM,0.113
same,Z.CTG (standard z score),ISC-enriched organoids [3]; dose 2.00 uM,0.746
same,"Dose.FC.CTG (log 2 fold change, ATP)",ISC-enriched organoids [3]; dose 2.00 uM,0.312
same,Z.CTG (standard z score),ISC-enriched organoids [3]; dose 10.00 uM,0.451
same,"Dose.FC.CTG (log 2 fold change, ATP)",ISC-enriched organoids [3]; dose 10.00 uM,0.189
O=C(c1ccc(F)cc1)N1CCC[C@H](c2nc(-c3ccc(F)cc3)no2)C1 [ADX-47273],Dose.FC.LYZ.NS,ISC-enriched organoids [1]; [4],0.269 log 2 fold change
same,Z.LYZ.NS,"ISC-enriched organoids [1]; primary screen, dose 0.08 uM",2.346
same,Dose.FC.LYZ.NS,ISC-enriched organoids [1]; [5],0.053 log 2 fold change
same,Z.LYZ.NS,"ISC-enriched organoids [1]; primary screen, dose 0.40 uM",0.457
same,Dose.FC.LYZ.NS,ISC-enriched organoids [1]; [6],−0.033 log 2 fold change
same,Z.LYZ.NS,"ISC-enriched organoids [1]; primary screen, dose 2.00 uM",−0.286
same,Dose.FC.LYZ.NS,ISC-enriched organoids [1]; [7],−0.036 log 2 fold change
same,Z.LYZ.NS,"ISC-enriched organoids [1]; primary screen, dose 10.00 uM",−0.311
same,Dose.FC.LYZ.S,"ISC-enriched organoids [2]; dose 0.08 uM, ENR+CD 6 days",0.147 log 2 fold change
same,Dose.FC.LYZ.S,"ISC-enriched organoids [2]; dose 0.40 uM, ENR+CD 6 days",0.147 log 2 fold change
same,Dose.FC.LYZ.S,"ISC-enriched organoids [2]; dose 2.00 uM, ENR+CD 6 days",−0.039 log 2 fold change
same,Dose.FC.LYZ.S,"ISC-enriched organoids [2]; dose 10.00 uM, ENR+CD 6 days",−0.070 log 2 fold change
same,Dose.FC.CTG,ISC-enriched organoids [3]; [4],0.115 log 2 fold change
same,Z.CTG,"ISC-enriched organoids [3]; primary screen, dose 0.08 uM",0.274
same,Dose.FC.CTG,ISC-enriched organoids [3]; [5],−0.034 log 2 fold change
same,Z.CTG,"ISC-enriched organoids [3]; primary screen, dose 0.40 uM",−0.082
same,Dose.FC.CTG,ISC-enriched organoids [3]; [6],−0.210 log 2 fold change
same,Z.CTG,"ISC-enriched organoids [3]; primary screen, dose 2.00 uM",−0.501
same,Dose.FC.CTG,ISC-enriched organoids [3]; [7],−0.039 log 2 fold change
same,Z.CTG,"ISC-enriched organoids [3]; primary screen, dose 10.00 uM",−0.094
Nc1cccc(-c2cc3c(Oc4cccc(O)c4)ncnc3[nH]2)c1 [TWS119],Z.LYZ.NS (standard z score),ISC-enriched organoids [1]; dose 0.08 uM,0.820
same,"Dose.FC.LYZ.NS (log 2 fold change, basal lysozyme secretion)",ISC-enriched organoids [1]; dose 0.08 uM,0.094
same,Z.LYZ.NS (standard z score),ISC-enriched organoids [1]; dose 0.40 uM,0.327
same,"Dose.FC.LYZ.NS (log 2 fold change, basal lysozyme secretion)",ISC-enriched organoids [1]; dose 0.40 uM,0.038
same,Z.LYZ.NS (standard z score),ISC-enriched organoids [1]; dose 2.00 uM,0.304
same,"Dose.FC.LYZ.NS (log 2 fold change, basal lysozyme secretion)",ISC-enriched organoids [1]; dose 2.00 uM,0.035
same,Z.LYZ.NS (standard z score),ISC-enriched organoids [1]; dose 10.00 uM,−2.027
same,"Dose.FC.LYZ.NS (log 2 fold change, basal lysozyme secretion)",ISC-enriched organoids [1]; dose 10.00 uM,−0.233
same,"Dose.FC.LYZ.S (log 2 fold change, carbachol-induced lysozyme secretion)",ISC-enriched organoids [2]; dose 0.08 uM,0.207
same,"Dose.FC.LYZ.S (log 2 fold change, carbachol-induced lysozyme secretion)",ISC-enriched organoids [2]; dose 0.40 uM,0.142
same,"Dose.FC.LYZ.S (log 2 fold change, carbachol-induced lysozyme secretion)",ISC-enriched organoids [2]; dose 2.00 uM,0.044
same,"Dose.FC.LYZ.S (log 2 fold change, carbachol-induced lysozyme secretion)",ISC-enriched organoids [2]; dose 10.00 uM,−0.283
same,Z.CTG (standard z score),ISC-enriched organoids [3]; dose 0.08 uM,0.784
same,"Dose.FC.CTG (log 2 fold change, ATP)",ISC-enriched organoids [3]; dose 0.08 uM,0.328
same,Z.CTG (standard z score),ISC-enriched organoids [3]; dose 0.40 uM,0.796
same,"Dose.FC.CTG (log 2 fold change, ATP)",ISC-enriched organoids [3]; dose 0.40 uM,0.333
same,Z.CTG (standard z score),ISC-enriched organoids [3]; dose 2.00 uM,0.169
same,"Dose.FC.CTG (log 2 fold change, ATP)",ISC-enriched organoids [3]; dose 2.00 uM,0.071
same,Z.CTG (standard z score),ISC-enriched organoids [3]; dose 10.00 uM,−2.866
same,"Dose.FC.CTG (log 2 fold change, ATP)",ISC-enriched organoids [3]; dose 10.00 uM,−1.200
Oc1ccc(Nc2nc(-c3ccc(Cl)cc3)cs2)cc1 [SKI II],Z.LYZ.NS (standard z score),"ISC-enriched organoids [1]; Dose 0.08 uM, primary screen",0.683
same,Dose.FC.LYZ.NS (log 2 fold change),"ISC-enriched organoids [1]; Dose 0.08 uM, primary screen",0.078
same,Z.LYZ.NS (standard z score),"ISC-enriched organoids [1]; Dose 0.40 uM, primary screen",1.906
same,Dose.FC.LYZ.NS (log 2 fold change),"ISC-enriched organoids [1]; Dose 0.40 uM, primary screen",0.219
same,Z.LYZ.NS (standard z score),"ISC-enriched organoids [1]; Dose 2.00 uM, primary screen",0.647
same,Dose.FC.LYZ.NS (log 2 fold change),"ISC-enriched organoids [1]; Dose 2.00 uM, primary screen",0.074
same,Z.LYZ.NS (standard z score),"ISC-enriched organoids [1]; Dose 10.00 uM, primary screen",−1.362
same,Dose.FC.LYZ.NS (log 2 fold change),"ISC-enriched organoids [1]; Dose 10.00 uM, primary screen",−0.156
same,Dose.FC.LYZ.S (log 2 fold change),ISC-enriched organoids [2]; Dose 0.08 uM,0.090
same,Dose.FC.LYZ.S (log 2 fold change),ISC-enriched organoids [2]; Dose 0.40 uM,0.123
same,Dose.FC.LYZ.S (log 2 fold change),ISC-enriched organoids [2]; Dose 2.00 uM,0.061
same,Dose.FC.LYZ.S (log 2 fold change),ISC-enriched organoids [2]; Dose 10.00 uM,−0.191
same,Z.CTG (standard z score),"ISC-enriched organoids [3]; Dose 0.08 uM, primary screen",0.699
same,Dose.FC.CTG (log 2 fold change),"ISC-enriched organoids [3]; Dose 0.08 uM, primary screen",0.293
same,Z.CTG (standard z score),"ISC-enriched organoids [3]; Dose 0.40 uM, primary screen",0.531
same,Dose.FC.CTG (log 2 fold change),"ISC-enriched organoids [3]; Dose 0.40 uM, primary screen",0.222
same,Z.CTG (standard z score),"ISC-enriched organoids [3]; Dose 2.00 uM, primary screen",0.473
same,Dose.FC.CTG (log 2 fold change),"ISC-enriched organoids [3]; Dose 2.00 uM, primary screen",0.198
same,Z.CTG (standard z score),"ISC-enriched organoids [3]; Dose 10.00 uM, primary screen",−0.802
same,Dose.FC.CTG (log 2 fold change),"ISC-enriched organoids [3]; Dose 10.00 uM, primary screen",−0.336

# Source: patent US20230398130A1, “METHODS AND COMPOSITIONS FOR DIFFERENTIATING STEM CELLS” (Massachusetts Institute of Technology, priority 2020, published 2023)
